Source: ChEMBL document CHEMBL3779786, “Tabtoxinine--lactam is a stealth -lactam antibiotic that evades -lactamase-mediated antibiotic resistance” (Medchemcomm, 2016)
In brackets after ≈: the same amount, converted by molar mass. Activity calls are given as the source filed them. The calls are words filed in the database; no cut-off is given here.

Tests used:
Escherichia coli [1] = assay: Antibacterial activity against Escherichia coli BL21(DE3) expressing beta lactamase CTX-M-9 with no leader sequence in glutamine-free minimal media after 24 hrs by broth microdilution method; format: functional
Escherichia coli [2] = assay: Antibacterial activity against Escherichia coli BL21(DE3) in glutamine-free minimal media after 24 hrs by broth microdilution method; format: functional
Escherichia coli [3] = assay: Antibacterial activity against Escherichia coli DH5alpha expressing beta lactamase SHV-5 in glutamine-free minimal media after 24 hrs by broth microdilution method; format: functional; conditions: DH5[alpha]
Escherichia coli [4] = assay: Antibacterial activity against Escherichia coli BL21(DE3) expressing beta lactamase TEM-64 in glutamine-free minimal media after 24 hrs by broth microdilution method; format: functional
Escherichia coli [5] = assay: Antibacterial activity against Escherichia coli DH5alpha expressing beta lactamase CTX-M-15 in glutamine-free minimal media after 24 hrs by broth microdilution method; format: functional; conditions: DH5[alpha]
Escherichia coli [6] = assay: Antibacterial activity against Escherichia coli DH5alpha expressing beta lactamase TEM-24 in glutamine-free minimal media after 24 hrs by broth microdilution method; format: functional; conditions: DH5[alpha]
Escherichia coli [7] = assay: Antibacterial activity against Escherichia coli DH5alpha expressing beta lactamase TEM-1 in glutamine-free minimal media after 24 hrs by broth microdilution method; format: functional; conditions: DH5[alpha]
Escherichia coli [8] = assay: Antibacterial activity against Escherichia coli DH5alpha expressing beta lactamase VIM-2 in glutamine-free minimal media after 24 hrs by broth microdilution method; format: functional; conditions: DH5[alpha]
Escherichia coli [9] = assay: Antibacterial activity against Escherichia coli DH5alpha expressing beta lactamase OXA-24/40 in glutamine-free minimal media after 24 hrs by broth microdilution method; format: functional; conditions: DH5[alpha]
Escherichia coli [10] = assay: Antibacterial activity against Escherichia coli DH5alpha in glutamine-free minimal media after 24 hrs by broth microdilution method; format: functional; conditions: DH5[alpha]
Escherichia coli [11] = assay: Antibacterial activity against Escherichia coli BL21(DE3) expressing beta lactamase TEM-1 with no leader sequence in glutamine-free minimal media after 24 hrs by broth microdilution method; format: functional
Escherichia coli [12] = assay: Antibacterial activity against Escherichia coli DH5alpha expressing beta lactamase SHV-12 in glutamine-free minimal media after 24 hrs by broth microdilution method; format: functional; conditions: DH5[alpha]
Escherichia coli [13] = assay: Antibacterial activity against Escherichia coli DH5alpha expressing beta lactamase KPC-3 in glutamine-free minimal media after 24 hrs by broth microdilution method; format: functional; conditions: DH5[alpha]
Escherichia coli [14] = assay: Antibacterial activity against Escherichia coli DH5alpha expressing beta lactamase NDM-1 in glutamine-free minimal media after 24 hrs by broth microdilution method; format: functional; conditions: DH5[alpha]
Escherichia coli [15] = assay: Antibacterial activity against Escherichia coli BL21(DE3) expressing beta lactamase CTX-M-9 in glutamine-free minimal media after 24 hrs by broth microdilution method; format: functional
Escherichia coli [16] = assay: Antibacterial activity against Escherichia coli BL21(DE3) expressing beta lactamase TEM-1 in glutamine-free minimal media after 24 hrs by broth microdilution method; format: functional
[17] = Drug metabolism assessed as 1 uM Escherichia coli DH5alpha beta lactamase TEM-1 mediated metabolite formation at 1 mM after 5 hrs by LCMS analysis; format: ADME; conditions: escherichia coli dh5[alpha], 1000 µM
[18] = Drug metabolism assessed as 2 nM Escherichia coli DH5alpha beta lactamase TEM-1 mediated metabolite formation at 1 mM after 30 mins by LCMS analysis; format: ADME; conditions: escherichia coli dh5[alpha], 0.5 h, 1000 µM
[19] = Drug metabolism assessed as 2 nM Escherichia coli DH5alpha beta lactamase CTX-M-9 mediated metabolite formation at 1 mM after 30 mins by HPLC analysis; format: ADME; conditions: escherichia coli dh5[alpha], 0.5 h, 1000 µM
[20] = Drug metabolism assessed as 1 uM Escherichia coli DH5alpha beta lactamase CTX-M-9 mediated metabolite formation at 1 mM after 5 hrs by HPLC analysis; format: ADME; conditions: escherichia coli dh5[alpha], 1000 µM
[21] = Drug metabolism assessed as 1 uM Escherichia coli DH5alpha beta lactamase TEM-1 mediated metabolite formation at 1 mM after 5 hrs by HPLC analysis; format: ADME; conditions: escherichia coli dh5[alpha], 1000 µM
Escherichia coli [22] = assay: Bactericidal activity against Escherichia coli; format: functional, organism-based
Staphylococcus aureus = assay: Bacteriostatic activity against Staphylococcus aureus in glutamine-free minimal media; format: functional, organism-based
[23] = Drug metabolism assessed as 2 nM Escherichia coli DH5alpha beta lactamase TEM-1 mediated metabolite formation at 1 mM after 30 mins by HPLC analysis; format: ADME; conditions: escherichia coli dh5[alpha], 0.5 h, 1000 µM
Escherichia coli [24] = assay: Antibacterial activity against Escherichia coli in glutamine containing nutrient broth at 0.06 to 128 uM; format: functional, organism-based
[25] = Drug metabolism assessed as 1 uM Escherichia coli DH5alpha beta lactamase CTX-M-9 mediated metabolite formation at 1 mM after 5 hrs by LCMS analysis; format: ADME; conditions: escherichia coli dh5[alpha], 1000 µM
[26] = Drug metabolism assessed as 2 nM Escherichia coli DH5alpha beta lactamase CTX-M-9 mediated metabolite formation at 1 mM after 30 mins by LCMS analysis; format: ADME; conditions: escherichia coli dh5[alpha], 0.5 h, 1000 µM
[27] = Drug level assessed as 2 nM Escherichia coli DH5alpha beta lactamase CTX-M-9 mediated compound formation treated with benzyl penicillin at 1 mM after 30 mins by LCMS analysis; format: ADME; conditions: escherichia coli dh5[alpha], 0.5 h, 1000 µM
[28] = Drug level assessed as 1 uM Escherichia coli DH5alpha beta lactamase TEM-1 mediated compound formation treated with benzyl penicillin at 1 mM after 5 hrs by HPLC analysis; format: ADME; conditions: escherichia coli dh5[alpha], 1000 µM
[29] = Drug level assessed as 2 nM Escherichia coli DH5alpha beta lactamase CTX-M-9 mediated compound formation treated with benzyl penicillin at 1 mM after 30 mins by HPLC analysis; format: ADME; conditions: escherichia coli dh5[alpha], 0.5 h, 1000 µM
[30] = Drug level assessed as 2 nM Escherichia coli DH5alpha beta lactamase TEM-1 mediated compound formation treated with benzyl penicillin at 1 mM after 30 mins by LCMS analysis; format: ADME; conditions: escherichia coli dh5[alpha], 0.5 h, 1000 µM
[31] = Drug level assessed as 1 uM Escherichia coli DH5alpha beta lactamase CTX-M-9 mediated compound formation treated with benzyl penicillin at 1 mM after 5 hrs by LCMS analysis; format: ADME; conditions: escherichia coli dh5[alpha], 1000 µM
[32] = Drug level assessed as 2 nM Escherichia coli DH5alpha beta lactamase TEM-1 mediated compound formation treated with benzyl penicillin at 1 mM after 30 mins by HPLC analysis; format: ADME; conditions: escherichia coli dh5[alpha], 0.5 h, 1000 µM
[33] = Drug level assessed as 1 uM Escherichia coli DH5alpha beta lactamase TEM-1 mediated compound formation treated with benzyl penicillin at 1 mM after 5 hrs by LCMS analysis; format: ADME; conditions: escherichia coli dh5[alpha], 1000 µM
[34] = Drug level assessed as 1 uM Escherichia coli DH5alpha beta lactamase CTX-M-9 mediated compound formation treated with benzyl penicillin at 1 mM after 5 hrs by HPLC analysis; format: ADME; conditions: escherichia coli dh5[alpha], 1000 µM
Escherichia coli [35] = assay: Antibacterial activity against Escherichia coli ATCC 25922 in glutamine-free minimal media after 24 hrs by broth microdilution method; format: functional; conditions: ATCC 25922, 24 h
[36] = Drug metabolism assessed as 1 uM Escherichia coli DH5alpha beta lactamase TEM-1 mediated formation of benzyl penicilloic acid at 1 mM after 5 hrs by LCMS analysis; format: ADME; conditions: escherichia coli dh5[alpha], 1000 µM
[37] = Drug metabolism assessed as 1 uM Escherichia coli DH5alpha beta lactamase CTX-M-9 mediated formation of benzyl penicilloic acid at 1 mM after 5 hrs by HPLC analysis; format: ADME; conditions: escherichia coli dh5[alpha], 1000 µM
[38] = Drug metabolism assessed as 2 nM Escherichia coli DH5alpha beta lactamase CTX-M-9 mediated formation of benzyl penicilloic acid at 1 mM after 30 mins by LCMS analysis; format: ADME; conditions: escherichia coli dh5[alpha], 0.5 h, 1000 µM
[39] = Drug metabolism assessed as 1 uM Escherichia coli DH5alpha beta lactamase TEM-1 mediated formation of benzyl penicilloic acid at 1 mM after 5 hrs by HPLC analysis; format: ADME; conditions: escherichia coli dh5[alpha], 1000 µM
[40] = Drug metabolism assessed as 2 nM Escherichia coli DH5alpha beta lactamase TEM-1 mediated formation of benzyl penicilloic acid at 1 mM after 30 mins by LCMS analysis; format: ADME; conditions: escherichia coli dh5[alpha], 0.5 h, 1000 µM
[41] = Drug metabolism assessed as 2 nM Escherichia coli DH5alpha beta lactamase CTX-M-9 mediated formation of benzyl penicilloic acid at 1 mM after 30 mins by HPLC analysis; format: ADME; conditions: escherichia coli dh5[alpha], 0.5 h, 1000 µM
[42] = Drug metabolism assessed as 2 nM Escherichia coli DH5alpha beta lactamase TEM-1 mediated formation of benzyl penicilloic acid at 1 mM after 30 mins by HPLC analysis; format: ADME; conditions: escherichia coli dh5[alpha], 0.5 h, 1000 µM
[43] = Drug metabolism assessed as 1 uM Escherichia coli DH5alpha beta lactamase CTX-M-9 mediated formation of benzyl penicilloic acid at 1 mM after 5 hrs by LCMS analysis; format: ADME; conditions: escherichia coli dh5[alpha], 1000 µM

| Compound | MIC90 (Escherichia coli [1]) [µM] | MIC90 (Escherichia coli [2]) [µM] | MIC90 (Escherichia coli [3]) [µM] | MIC90 (Escherichia coli [4]) [µM] | MIC90 (Escherichia coli [5]) [µM] | MIC90 (Escherichia coli [6]) [µM] | MIC90 (Escherichia coli [7]) [µM] | MIC90 (Escherichia coli [8]) [µM] | MIC90 (Escherichia coli [9]) [µM] | MIC90 (Escherichia coli [10]) [µM] | MIC90 (Escherichia coli [11]) [µM] | MIC90 (Escherichia coli [12]) [µM] | MIC90 (Escherichia coli [13]) [µM] | MIC90 (Escherichia coli [14]) [µM] | MIC90 (Escherichia coli [15]) [µM] | MIC90 (Escherichia coli [16]) [µM] | Drug metabolism [17] | Drug metabolism [18] | Drug metabolism [19] | Drug metabolism [20] | other results |
| --- | --- | --- | --- | --- | --- | --- | --- | --- | --- | --- | --- | --- | --- | --- | --- | --- | --- | --- | --- | --- | --- |
| GENTAMICIN | 1.4 | 1.4 | < 0.25 | 1.4 | 1 | 0.5 | 1 | 1 | 0.5 | 0.25 | 1.4 | 0.5 | 0.5 | 1 | 1.4 | 1.4 | – | – | – | – | – |
| C[C@@H](O)[C@H](NC(=O)[C@@H](N)CC[C@]1(O)CNC1=O)C(=O)O | 8 (≈ 2.31 µg/mL) | 8 (≈ 2.31 µg/mL) | < 0.031 | 16 (≈ 4.63 µg/mL) | 0.125 (≈ 0.0362 µg/mL) | 0.0625 (≈ 0.0181 µg/mL) | 0.25 (≈ 0.0723 µg/mL) | 2 (≈ 0.579 µg/mL) | 2 (≈ 0.579 µg/mL) | 0.5 (≈ 0.145 µg/mL) | 16 (≈ 4.63 µg/mL) | 0.25 (≈ 0.0723 µg/mL) | 0.5 (≈ 0.145 µg/mL) | 0.5 (≈ 0.145 µg/mL) | 4 (≈ 1.16 µg/mL) | 4 (≈ 1.16 µg/mL) | metabolite_detected | metabolite_detected | metabolite_detected | metabolite_detected | Drug metabolism [21]: metabolite_detected; Activity (Escherichia coli [22]): inactive; Activity (Staphylococcus aureus): Active; Drug metabolism [23]: metabolite_detected; Activity (Escherichia coli [24]): inactive; Drug metabolism [25]: metabolite_detected; Drug metabolism [26]: metabolite_detected |
| CC1(C)S[C@@H]2[C@H](NC(=O)[C@H](N)c3ccccc3)C(=O)N2[C@H]1C(=O)O [AMPICILLIN] | 128 (≈ 44.7 µg/mL) | 0.5 (≈ 0.175 µg/mL) | > 128 | > 128 | > 128 | > 128 | > 128 | > 128 | > 128 | 2 (≈ 0.699 µg/mL) | > 128 | > 128 | > 128 | > 128 | 128 (≈ 44.7 µg/mL) | > 128 | – | – | – | – | – |
| CC1(C)S[C@H]([C@H](NC(=O)Cc2ccccc2)C(=O)O)N[C@H]1C(=O)O | – | – | – | – | – | – | – | – | – | – | – | – | – | – | – | – | – | – | – | – | Drug metabolism [27]: metabolite_detected; Drug metabolism [28]: metabolite_detected; Drug metabolism [29]: metabolite_detected; Drug metabolism [30]: metabolite_detected; Drug metabolism [31]: metabolite_detected; Drug metabolism [32]: metabolite_detected; Drug metabolism [33]: metabolite_detected; Drug metabolism [34]: metabolite_detected |
| N[C@@H](CC[C@]1(O)CNC1=O)C(=O)O | – | – | – | – | – | – | – | – | – | – | – | – | – | – | – | – | metabolite_detected | metabolite_detected | metabolite_detected | metabolite_detected | MIC90 (Escherichia coli [35]): > 128 µM; Drug metabolism [21]: metabolite_detected; Drug metabolism [23]: metabolite_detected; Drug metabolism [25]: metabolite_detected; Drug metabolism [26]: metabolite_detected |
| CC1(C)S[C@@H]2[C@H](NC(=O)Cc3ccccc3)C(=O)N2[C@H]1C(=O)O [PENICILLIN G] | 128 (≈ 42.8 µg/mL) | 4 (≈ 1.34 µg/mL) | – | > 128 | – | – | – | – | – | – | > 128 | – | – | – | 128 (≈ 42.8 µg/mL) | > 128 | – | – | – | – | Drug metabolism [36]: metabolite_detected; Drug metabolism [37]: metabolite_detected; Drug metabolism [38]: metabolite_detected; Drug metabolism [39]: metabolite_detected; Drug metabolism [40]: metabolite_detected; Drug metabolism [41]: metabolite_detected; Drug metabolism [42]: metabolite_detected; Drug metabolism [43]: metabolite_detected |
